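Where inhibition never reached the appropriate level, the endpoint shown equals the highest concentration tested. Otherwise, values were interpolated linearly from a five-concentration, 48-hour dose response in 96-well plates. At the TGI there is no net growth.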

Holding throughout (experiment): growth of human tumour cells (NCI), 48 h
The test system of experiment [1] is A549 NSCLC.
In experiment [2] the test system is CCRF-CEM leukemia.
Experiment [3] deals with COLO 205 colon.
In experiment [4] the test system is HCT-116 colon.
The subject of experiment [5] is HL-60(TB) leukemia.
Experiment [6] deals with MALME-3M melanoma.
The test system of experiment [7] is MOLT-4 leukemia.
Experiment [8] has as its system NCI-H522 lung.
Experiment [9] has as its system OVCAR-4 ovarian.
The subject of experiment [10] is OVCAR-5 ovarian.

In the case of `CCOC(=O)C(NC(=O)c1ccco1)(Nc1nc2ccc(OCC)cc2s1)C(F)(F)F` (stereo not given), the TGI in [1] is above 100 µM; in experiment [2] it was above 100 µM; in [3] it was 46.4 µM; in experiment [4], 91.2 µM; in experiment [5], above 100 µM; in experiment [6] it was above 100 µM. In addition, the TGI in experiment [7], in experiment [8], in [9] and in [10] was above 100 µM in each case.

`O=C(OCN1C(=O)C2C3C=CC(C2C1=O)C1C2C(=O)N(COC(=O)C4CCCN4)C(=O)C2C31)C1CCCN1` (stereo not given): the TGI in experiment [1] was above 100 µM; in [2], 53.5 µM; in experiment [3] it was above 100 µM; in [4] it was above 53.7 µM; in [5] it was 43.6 µM; in [6], above 100 µM. Besides, the TGI in experiment [7] is above 95.3 µM; in [8] it was above 100 µM; in experiment [9], above 100 µM; in experiment [10] it was above 100 µM.

As for `[N-]=[N+]=CC(=O)c1ccccc1C#CCCc1ccccc1`, the TGI in experiment [1] is above 100 µM; in experiment [2], 62.1 µM; in experiment [3] it was 71.1 µM; in experiment [4], 48.9 µM; in [5], 32.9 µM; in experiment [6] it was 79.1 µM. For the same compound, the TGI was 40.9 µM in experiment [7], 30.9 µM in [8], above 100 µM in [9] and above 100 µM in experiment [10].

As for `CCC(C)C1=C(OC(C)=O)[N+]2([O-])Oc3ccc(-c4c(OC(C)=O)c(OC(C)=O)c(-c5ccc(OC(C)=O)cc5)c(OC(C)=O)c4OC(C)=O)cc3OC2(C(C)CC)C(=O)N1OC(C)=O` (stereo not given), the TGI in experiment [1] is above 50 µM; in [2], 39.3 µM; in experiment [3], above 50 µM; in experiment [4], 22.8 µM; in [5] it was 19.7 µM; in experiment [6], above 50 µM. The TGI is 29.3 µM in [7], 17.5 µM in experiment [8], 38 µM in experiment [9] and above 50 µM in [10].

In the case of `O=C(c1cccs1)N(C(=S)OC12CC3CC(CC(C3)C1)C2)c1ccccc1`, the TGI in experiment [1] was above 100 µM; in [2] it was 52.1 µM; in experiment [3], 33.8 µM; in experiment [4], 59.3 µM; in [5] it was 72.5 µM; in experiment [6], above 100 µM. Besides, the TGI was above 100 µM in experiment [7], 46 µM in experiment [8], above 100 µM in experiment [9] and above 100 µM in [10].

In the case of `CC12CC3OC(=O)C1COC14OC5(C2C1=O)C(O)(CCC1C4CC(O)C2(O)CC=CC(=O)C12C)C(=O)OC35C` (stereo not given), the TGI in experiment [1], in experiment [2], in [3], in experiment [4], in [5] and in experiment [6] was above 100 µM each time. The TGI in experiment [7], in experiment [8], in experiment [9] and in experiment [10] was above 100 µM throughout.

As for `COc1cccc2c1Cc1cc(-c3ccccc3)[n+](C)n1-2`, the TGI in [1] was above 100 µM; in experiment [2] it was 9.69 µM; in experiment [3], 7.46 µM; in experiment [4], 15.8 µM; in [5] it was 44.9 µM; in [6], 25.6 µM. In addition, the TGI in [7] is above 100 µM; in experiment [8] it was above 100 µM; in experiment [9], 14.5 µM; in [10], above 100 µM.

(Values after PubChem BioAssay (NCI).)
